Test results from patent EP2739618B1, “QUINAZOLINE COMPOUNDS AS SERINE/THREONINE KINASE INHIBITORS” (Array Biopharma, Inc., priority 2011, dated 2013).

Assays:
HCT116 cells = assay: Cell Proliferation/Viability Assay (Cell Titer-Blue); type: cell-based; details: Homo sapiens, HCT-116, 3-day (72-hour) incubation, single assay or mean of multiple assays
Experimental: Cell Proliferation/Viability Assay
Viable cells after a 3-day (72-hour) incubation with ERK compounds were quantified using the Cell Titer-Blue Cell Viability Assay from Promega.
Materials and Methods: HCT116 cells were plated in 96 well micro-plates at a density of 1,000 cells/well. The cells were allowed to attach to micro-plate overnight at 37 °C/5% CO2. After overnight attachment, diluted compounds were then added to the cells at a final concentration of 0.5% DMSO. After 3 days (72 hours) at 37 °C/5% CO2, the number of viable cells was determined using the Cell Titer-Blue Cell Viability Assay from Promega. Briefly, Cell Titer-Blue reagent were added to the cells and incubated for 1 hour. Fluorescence (560nmexcitation/590nmemission) was then read using a fluorescence micro-plate reader. Background from high concentration Erk-inhibited wells was subtracted. Representative data is in TABLE III (infra). The reported IC50 may be from a single assay or the mean of multiple assays.

[1] = test system: PMA-stimulated P90RSK(Ser380) phosphorylation; assay: Cellular P90RSK(Ser380) Phosphorylation Assay; type: cell-based; details: Homo sapiens; HepG2 cells, 1.5 h compound incubation, PMA 100ng/mL 30 min, normalized to GAPDH signal; single assay or mean of multiple assays
Experimental: Cellular P90RSK(Ser380) Phosphorylation Assay
Inhibition of PMA-stimulated P90RSK(Ser380) phosphorylation was determined by the following in vitro cellular mechanistic assay, which comprises incubating cells with a compound for 1.5 h and quantifying fluorescent pP90RSK(Ser380) signal on fixed cells and normalizing to GAPDH signal.
Materials and Methods: HepG2 cells were obtained from ATCC and grown in DMEM supplemented with 10% fetal bovine serum. Cells were plated in 96-well plates at 35,000 cells/well and allowed to attach overnight at 37 °C/5% CO2. Diluted compounds were then added at a final concentration of 0.5% DMSO. After 1.5 h compound incubation, cells were stimulated with the addition of PMA (phorbol 12-myristate 13-acetate) at a final concentration of 100ng/mL; the PMA stimulation was a 30-min incubation at 37 °C/5% CO2. After the 30-minute PMA stimulation, cells were washed with PBS and fixed in 3.7% formaldehyde in PBS at room temperature for 15-20 min. This was followed by another wash in PBS and then permeabilization in 100% MeOH at room temperature for 10-15 min. Following the permeabilization incubation, cells were washed in PBS/0.05% Tween-20, followed by a block in Odyssey blocking buffer (LI-COR Biosciences) for at least 1 hour. Antibodies to phosphorylated P90RSK(Ser380) (Cell Signaling #9335, rabbit monoclonal) and GAPDH (Fitzgerald 10R-G109a, mouse monoclonal) were added to the cells and incubated overnight at 4 °C. pP90RSK(Ser380) antibody was used at a 1:250 dilution; GAPDH was used at a 1:10,000 dilution. After washing with PBS/0.05% Tween-20, the cells were incubated with fluorescently-labeled secondary antibodies (Anti-rabbit-Alexa Flour680, Invitrogen Cat#A21109; Anti-mouse-IRDye800CW, Rockland Inc. Cat#610-131-121) for 1 h. Both secondary antibodies were used at a 1:1000 dilution. Cells were then washed and analyzed for fluorescence at both wavelengths using the Odyssey Infrared Imaging System (LI-COR Biosciences). Phosphorylated P90RSK(Ser380) signal was normalized to GAPDH signal. Representative data is in TABLE III (infra). The reported IC50 may be from a single assay or the mean of multiple assays.

[2] = target: T1, human ERK-2 (Mitogen Activated Kinase 1) (Homo sapiens, UniProt P28482); assay: ERK-2 Enzymatic Assay; type: biochemical; details: 5nM ERK-2 enzyme, 25µM ATP, S/T17 peptide substrate, single assay or mean of multiple assays
T1 construct: N-terminal 6-His fusion protein in E. coli and corresponding to aa 8-360; 6-His (N); made in house; host or cells: E. coli
How it was run: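 Values are single or averaged runs. Reactions used E. coli-expressed 6-His ERK-2 aa 8-360 and Omnia S/T17 peptide substrate at ambient temperature.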

T1 sequence (P28482 8-360): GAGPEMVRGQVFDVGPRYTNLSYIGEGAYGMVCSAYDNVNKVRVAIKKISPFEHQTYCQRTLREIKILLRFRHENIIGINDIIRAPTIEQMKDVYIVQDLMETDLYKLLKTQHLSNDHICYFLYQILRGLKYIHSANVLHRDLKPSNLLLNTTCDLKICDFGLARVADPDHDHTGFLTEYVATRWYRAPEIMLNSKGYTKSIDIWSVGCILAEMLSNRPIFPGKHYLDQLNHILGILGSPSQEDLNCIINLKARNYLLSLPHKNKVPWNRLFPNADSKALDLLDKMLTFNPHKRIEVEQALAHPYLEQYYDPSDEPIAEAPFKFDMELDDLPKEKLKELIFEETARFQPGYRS

| SMILES | IC50 (HCT116 cells) | IC50 [1] | IC50 ([2]; TABLE I) | IC50 ([2]; TABLE II) |
| --- | --- | --- | --- | --- |
| C[C@@H](CO)Nc1ncc2ccc(C(=O)N[C@H](c3ccc(Cl)c(F)c3)c3cnn(C)c3)cc2n1 (stereo in doubt) [Compound I-14, 2-((S)-2-hydroxy-1-methyl-ethylamino)-quinazoline-7-carboxylic acid [(R)-(4-chloro-3-fluoro-phenyl)-(1-methyl-1H-pyrazol-4-yl)-methyl]-amide] | 0.875 µM | 0.0598 µM | – | – |
| C[C@@H](CO)Nc1ncc2ccc(C(=O)NC(c3ccc(Cl)c(F)c3)c3cnn(C)c3)cc2n1 (stereo partly drawn) [Compound I-1, N-((4-chloro-3-fluorophenyl)(1-methyl-1H-pyrazol-4-yl)methyl)-2-((S)-1-hydroxypropan-2-ylamino)quinazoline-7-carboxamide] | 2.4 µM | 0.0755 µM | – | – |
| O=C(NC(c1ccc(Cl)c(F)c1)c1ncno1)c1ccc2cnc(NC3CCOCC3)nc2c1 (centres unmarked) [Compound I-34, 2-(tetrahydro-pyran-4-ylamino)-quinazoline-7-carboxylic acid [(4-chloro-3-fluoro-phenyl)-[1,2,4]oxadiazol-5-yl-methyl]-amide] | 5 µM | 0.0791 µM | 0.0036 µM | – |
| CC(C)Nc1ncc2ccc(C(=O)N[C@H](c3ccc(C(F)(F)F)c(F)c3)[C@@H]3CCCN3)cc2n1 (stereo in doubt) [Compound I-5, 2-isopropylamino-quinazoline-7-carboxylic acid [(S)-(3-fluoro-4-trifluoromethyl-phenyl)-(R)-pyrrolidin-2-yl-methyl]-amide] | 0.298 µM | 0.0117 µM | 0.0023 µM | – |
| COc1ccc([C@H](NC(=O)c2ccc3cnc(NC4CSC4)nc3c2)c2cnn(C)c2)cc1F [II-5] | – | 0.0505 µM | – | 0.013 µM |
| Cn1cc(C(NC(=O)c2ccc3cnc(NC4CCOCC4)nc3c2)c2ccc(Cl)c(F)c2)cn1 (centres unmarked) [Compound I-2, 2-(Tetrahydro-pyran-4-ylamino)-quinazoline-7-carboxylic acid [(4-chloro-3-fluoro-phenyl)-(1-methyl-1H-pyrazol-4-yl)-methyl]-amide] | 0.851 µM | 0.0227 µM | – | – |
| Cn1ccc([C@@H](NC(=O)c2cc(F)c3cnc(NC4CCOCC4)nc3c2)c2ccc(Cl)c(F)c2)n1 [Compound I-22, (S)-N-((4-chloro-3-fluorophenyl)(1-methyl-1H-pyrazol-3-yl)methyl)-5-fluoro-2-(tetrahydro-2H-pyran-4-ylamino)quinazoline-7-carboxamide] | 0.274 µM | 0.0235 µM | 0.0014 µM | – |
| Cn1cc([C@@H](NC(=O)c2ccc3cnc(Nc4ccnn4C)nc3c2)c2ccc(Cl)c(F)c2)cn1 [II-25] | – | 0.0199 µM | – | 0.0031 µM |
| Cn1cc([C@@H](NC(=O)c2ccc3cnc(NC4CCOCC4)nc3c2)c2ccc(OC(F)F)cc2)cn1 [Compound I-41, 2-(tetrahydropyran-4-ylamino)-quinazoline-7-carboxylic acid [(S)-(4-difluoromethoxy-phenyl)-(1-methyl-1H-pyrazol-4-yl)-methyl]-amide] | – | 0.115 µM | 0.00055 µM | – |
| O=C(N[C@@H](c1ccc(C(F)(F)F)c(F)c1)[C@@H]1CCCN1)c1ccc2cnc(NC3CCOCC3)nc2c1 [Compound I-3, 2-(Tetrahydropyran-4-ylamino)-quinazoline-7-carboxylic acid [(S)-(3-fluoro-4-tnfluoromethyl-phenyl)-(S)-pyrrolidin-2-yl-methyl]-amide] | 0.272 µM | 0.046 µM | 0.0021 µM | – |
| COc1ccc(C(NC(=O)c2ccc3cnc(NC4CCOCC4)nc3c2)c2cnn(CCO)c2)cc1F (centres unmarked) [Compound I-67, N-((3-fluoro-4-methoxyphenyl) (1-(2-hydroxyethyl)-1H-pyrazol-4-yl)methyl)-2-(tetrahydro-2H-pyran-4-ylamino) quinazoline-7-carboxamide] | – | 0.165 µM | 0.005 µM | – |
| COc1ccc([C@H](NC(=O)c2cc(F)c3cnc(N[C@H]4CC[C@H](O)CC4)nc3c2)c2cnn(C)c2)cc1F [II-13] | – | 0.0844 µM | – | – |
| Cn1cc([C@@H](NC(=O)c2ccc3cnc(N[C@H]4CCOC[C@H]4F)nc3c2)c2ccc(Cl)c(F)c2)cn1 [Compound I-28, 2-((3S,4S)-3-fluoro-tetrahydropyran-4-ylamino)-quinazoline-7-carboxylic acid [(S)-(4-chloro-3-fluoro-phenyl)-(1-methyl-1H-pyrazol-4-yl)-methyl]-amide] | 2.1 µM | 0.0874 µM | 0.0025 µM | – |
| COc1ccc([C@H](NC(=O)c2cc(F)c3cnc(NC4(C)COC4)nc3c2)c2cnn(C)c2)cc1F [Compound I-64, 5-Fluoro-2-(3-methyl-oxetan-3-ylamino)-quinazoline-7-carboxylic acid [(S)-(3-fluoro-4-methoxy-phenyl)-(1-methyl-1H-pyrazol-4-yl)-methyl]-amide] | – | 0.978 µM | 0.006 µM | – |
| C[C@@H]1CC[C@H]([C@@H](NC(=O)c2ccc3cnc(NC4CCOCC4)nc3c2)c2ccc(Cl)c(F)c2)N1 [Compound I-35, 2-(tetrahydropyran-4-ylamino)-quinazoline-7-carboxylic acid [(S)-(4-chloro-3-fluoro-phenyl)-((2R,5R)-S-methyl-pyrrolidin-2-yl)-methyl]-amide] | 0.044 µM | 0.0053 µM | 0.002 µM | – |
| C[C@H](Nc1ncc2ccc(C(=O)N[C@@H](c3ccc(Cl)c(F)c3)[C@@H]3CCCN3)cc2n1)C(F)(F)F [Compound I-40, 2-((S)-2,2,2-trifluoro-1-methyl-ethylamino)-quinazoline-7-carboxylic acid [(S)-(4-chloro-3-fluoro-phenyl)-(S)-pyrrolidin-2-yl-methyl]-amide] | – | 2.9 µM | 0.0073 µM | – |
| COc1ccc([C@H](NC(=O)c2ccc3cnc(Nc4ccnn4C)nc3c2)c2ccnn2C)cc1F [II-38] | – | 0.038 µM | – | 0.0029 µM |
| COc1ccc([C@H](NC(=O)c2ccc3cnc(Nc4cc(C)nn4C)nc3c2)c2cnn(C)c2)cc1F [II-18] | – | 0.364 µM | – | 0.0021 µM |
| COc1ccc([C@H](NC(=O)c2cc(F)c3cnc(NCC4CC4)nc3c2)c2cnn(C)c2)cc1F [Compound I-60, 2-(Cyclopropylmethyl-amino)-5-fluoro-quinazoline-7-carboxylic acid [(S)-(3-fluoro-4-methoxy-phenyl)-(1-methyl-1H-pyrazol-4-yl)-methyl]-amide] | – | 0.334 µM | 0.006 µM | – |
| COc1ccc([C@H](NC(=O)c2cc(F)c3cnc(N[C@@H]4CCOC4)nc3c2)c2cnn(C)c2)cc1F [Compound I-61, 5-Fluoro-N-((S)-(3-fluoro-4-methoxyphenyl)(1-methyl-1H-pyrazol-4-yl)methyl)-2-((R)-tetrahydrofuran-3-ylamino)quinazoline-7-carboxamide] | – | 0.066 µM | 0.002 µM | – |
| Cn1cc([C@@H](NC(=O)c2ccc3cnc(N[C@@H]4CCO[C@H](CO)C4)nc3c2)c2ccc(Cl)c(F)c2)cn1 [Compound I-47, N-((S)-(4-chloro-3-fluorophenyl)(1-methyl-1H-pyrazol-4-yl)methyl)-2-((2S,4R)-2-(hydroxymethyl)tetrahydro-2H-pyran-4-ylamino)quinazoline-7-carboxamide] | – | 0.029 µM | 0.0014 µM | – |
| O=C(N[C@@H](c1ccc(F)c(Cl)c1)[C@@]1(F)CCNC1)c1ccc2cnc(NC3CCOCC3)nc2c1 [Compound I-39] | 0.01 µM | 0.0174 µM | 0.0012 µM | – |
